Test results: PubChem BioAssay (NCI)
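Test compounds were applied to cells in 96-well plates for 48 hours at 5 doses. At the GI50, growth is halved. TGI marks complete inhibition of growth.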

Tests used:
Assay in all cases: NCI anticancer screen, dose series, 48 h
K-562 leukemia = tested on: K-562 leukemia
MDA-MB-435 = tested on: MDA-MB-435
COLO 205 colon = tested on: COLO 205 colon
MALME-3M melanoma = tested on: MALME-3M melanoma
SN12C renal = tested on: SN12C renal
SK-OV-3 ovarian = tested on: SK-OV-3 ovarian
CCRF-CEM leukemia = tested on: CCRF-CEM leukemia
NCI-H226 lung = tested on: NCI-H226 lung
OVCAR-4 ovarian = tested on: OVCAR-4 ovarian
OVCAR-5 ovarian = tested on: OVCAR-5 ovarian
DU-145 prostate = tested on: DU-145 prostate
HS 578T breast = tested on: HS 578T breast
A498 renal = tested on: A498 renal
SK-MEL-28 melanoma = tested on: SK-MEL-28 melanoma
UACC-257 melanoma = tested on: UACC-257 melanoma
OVCAR-3 ovarian = tested on: OVCAR-3 ovarian
RPMI-8226 leukemia = tested on: RPMI-8226 leukemia
BT-549 breast = tested on: BT-549 breast
MDA-MB-468 breast = tested on: MDA-MB-468 breast
KM12 colon = tested on: KM12 colon
MDA-MB-231 breast = tested on: MDA-MB-231 breast
SF-539 CNS = tested on: SF-539 CNS
OVCAR-8 ovarian = tested on: OVCAR-8 ovarian
EKVX NSCLC = tested on: EKVX NSCLC
MOLT-4 leukemia = tested on: MOLT-4 leukemia
SF-295 CNS = tested on: SF-295 CNS
SK-MEL-5 melanoma = tested on: SK-MEL-5 melanoma
SNB-19 CNS = tested on: SNB-19 CNS
CAKI-1 renal = tested on: CAKI-1 renal
NCI-H522 lung = tested on: NCI-H522 lung
SK-MEL-2 melanoma = tested on: SK-MEL-2 melanoma
SNB-75 CNS = tested on: SNB-75 CNS
UACC-62 melanoma = tested on: UACC-62 melanoma
NCI/ADR-RES ovarian = tested on: NCI/ADR-RES ovarian
UO-31 renal = tested on: UO-31 renal
TK-10 renal = tested on: TK-10 renal
U251 CNS = tested on: U251 CNS
LOX IMVI melanoma = tested on: LOX IMVI melanoma
T-47D breast = tested on: T-47D breast
IGROV1 ovarian = tested on: IGROV1 ovarian
HT29 colon = tested on: HT29 colon
NCI-H23 lung = tested on: NCI-H23 lung
PC-3 prostate = tested on: PC-3 prostate
786-0 renal = tested on: 786-0 renal
SW-620 colon = tested on: SW-620 colon
MCF7 breast = tested on: MCF7 breast
HCT-116 colon = tested on: HCT-116 colon
HCC-2998 colon = tested on: HCC-2998 colon
SR leukemia = tested on: SR leukemia
NCI-H460 lung = tested on: NCI-H460 lung
HL-60(TB) leukemia = tested on: HL-60(TB) leukemia
HCT-15 colon = tested on: HCT-15 colon
RXF 393 renal = tested on: RXF 393 renal
SF-268 CNS = tested on: SF-268 CNS
M14 melanoma = tested on: M14 melanoma
HOP-62 NSCLC = tested on: HOP-62 NSCLC
HOP-92 NSCLC = tested on: HOP-92 NSCLC
A549 NSCLC = tested on: A549 NSCLC
ACHN renal = tested on: ACHN renal

C#CCNC(=O)CCC(=O)OC[C@]12CC[C@@H](C(=C)C)[C@@H]1C1CC[C@@H]3[C@@]4(C)CCCNC(C)(C)[C@@H]4CC[C@@]3(C)[C@]1(C)CC2 (stereo partly drawn)
GI50 (K-562 leukemia): 1.78 µM | TGI (K-562 leukemia): 16.3 µM | GI50 (MDA-MB-435): 6.9 µM | TGI (MDA-MB-435): 15.2 µM | GI50 (COLO 205 colon): 2.25 µM | TGI (COLO 205 colon): 7.29 µM | GI50 (MALME-3M melanoma): 9.03 µM | TGI (MALME-3M melanoma): 18.5 µM | GI50 (SN12C renal): 7.89 µM | TGI (SN12C renal): 16.7 µM | GI50 (SK-OV-3 ovarian): 9.94 µM | TGI (SK-OV-3 ovarian): 20 µM | GI50 (CCRF-CEM leukemia): 4.24 µM | TGI (CCRF-CEM leukemia): 37.1 µM | GI50 (NCI-H226 lung): 7.58 µM | TGI (NCI-H226 lung): 18.3 µM | GI50 (OVCAR-4 ovarian): 9.11 µM | TGI (OVCAR-4 ovarian): 20.8 µM | GI50 (OVCAR-5 ovarian): 9.38 µM | TGI (OVCAR-5 ovarian): 17.9 µM | GI50 (DU-145 prostate): 10 µM | TGI (DU-145 prostate): 21.5 µM | GI50 (HS 578T breast): 9.96 µM | TGI (HS 578T breast): 24.2 µM | GI50 (A498 renal): 10.3 µM | TGI (A498 renal): 20.9 µM | GI50 (SK-MEL-28 melanoma): 8.2 µM | TGI (SK-MEL-28 melanoma): 16.5 µM | GI50 (UACC-257 melanoma): 2.51 µM | TGI (UACC-257 melanoma): 9.16 µM | GI50 (OVCAR-3 ovarian): 7.73 µM | TGI (OVCAR-3 ovarian): 18.2 µM | GI50 (RPMI-8226 leukemia): 4.15 µM | TGI (RPMI-8226 leukemia): 20.7 µM | GI50 (BT-549 breast): 11.3 µM | TGI (BT-549 breast): 21.1 µM | GI50 (MDA-MB-468 breast): 2.21 µM | TGI (MDA-MB-468 breast): 10.5 µM | GI50 (KM12 colon): 8.73 µM | TGI (KM12 colon): 18.8 µM | GI50 (MDA-MB-231 breast): 8.83 µM | TGI (MDA-MB-231 breast): 17.7 µM | GI50 (SF-539 CNS): 7.48 µM | TGI (SF-539 CNS): 15.7 µM | GI50 (OVCAR-8 ovarian): 11.1 µM | TGI (OVCAR-8 ovarian): 33.8 µM | GI50 (EKVX NSCLC): 6.5 µM | TGI (EKVX NSCLC): 14.2 µM | GI50 (MOLT-4 leukemia): 2.42 µM | TGI (MOLT-4 leukemia): 18.7 µM | GI50 (SF-295 CNS): 3.54 µM | TGI (SF-295 CNS): 12.2 µM | GI50 (SK-MEL-5 melanoma): 6.78 µM | TGI (SK-MEL-5 melanoma): 14.4 µM | GI50 (SNB-19 CNS): 8.91 µM | TGI (SNB-19 CNS): 17.6 µM | GI50 (CAKI-1 renal): 8.1 µM | TGI (CAKI-1 renal): 17.2 µM | GI50 (NCI-H522 lung): 11.7 µM | TGI (NCI-H522 lung): 25.4 µM | GI50 (SK-MEL-2 melanoma): 11.7 µM | TGI (SK-MEL-2 melanoma): 23.3 µM | GI50 (SNB-75 CNS): 9.12 µM | TGI (SNB-75 CNS): 18.7 µM | GI50 (UACC-62 melanoma): 9.04 µM | TGI (UACC-62 melanoma): 18.1 µM | GI50 (NCI/ADR-RES ovarian): 5.48 µM | TGI (NCI/ADR-RES ovarian): 16.6 µM | GI50 (UO-31 renal): 6.96 µM | TGI (UO-31 renal): 14.9 µM | GI50 (TK-10 renal): 10.1 µM | TGI (TK-10 renal): 22 µM | GI50 (U251 CNS): 6.62 µM | TGI (U251 CNS): 16.8 µM | GI50 (LOX IMVI melanoma): 1.23 µM | TGI (LOX IMVI melanoma): 2.83 µM | GI50 (T-47D breast): 8.06 µM | TGI (T-47D breast): 21.1 µM | GI50 (IGROV1 ovarian): 7.29 µM | TGI (IGROV1 ovarian): 16.3 µM | GI50 (HT29 colon): 2.71 µM | TGI (HT29 colon): 13.9 µM | GI50 (NCI-H23 lung): 7.89 µM | TGI (NCI-H23 lung): 16.1 µM | GI50 (PC-3 prostate): 4.8 µM | TGI (PC-3 prostate): 16.3 µM | GI50 (786-0 renal): 8.29 µM | TGI (786-0 renal): 23.6 µM | GI50 (SW-620 colon): 7.25 µM | TGI (SW-620 colon): 16.7 µM | GI50 (MCF7 breast): 2.36 µM | TGI (MCF7 breast): 9.66 µM | GI50 (HCT-116 colon): 3.31 µM | TGI (HCT-116 colon): 27.4 µM | GI50 (HCC-2998 colon): 2.55 µM | TGI (HCC-2998 colon): 10.3 µM | GI50 (SR leukemia): > 64.8 µM | TGI (SR leukemia): > 64.8 µM | GI50 (NCI-H460 lung): 7.89 µM | TGI (NCI-H460 lung): 18.6 µM | GI50 (HL-60(TB) leukemia): 2.37 µM | TGI (HL-60(TB) leukemia): 14 µM | GI50 (HCT-15 colon): 3.89 µM | TGI (HCT-15 colon): 12.4 µM | GI50 (RXF 393 renal): 3.51 µM | TGI (RXF 393 renal): 13.6 µM | GI50 (SF-268 CNS): 10.5 µM | TGI (SF-268 CNS): 23.8 µM | GI50 (M14 melanoma): 6.83 µM | TGI (M14 melanoma): 19 µM | GI50 (HOP-62 NSCLC): 11.7 µM | TGI (HOP-62 NSCLC): 23.7 µM | GI50 (HOP-92 NSCLC): 7.54 µM | TGI (HOP-92 NSCLC): 19 µM | GI50 (A549 NSCLC): 7.12 µM | TGI (A549 NSCLC): 16.7 µM | GI50 (ACHN renal): 10.1 µM | TGI (ACHN renal): 18.9 µM
